The record followed here is PubChem BioAssay (NCI).

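Protocol summary: plate cells (96-well), add compound at 5 concentrations, incubate 48 h, interpolate endpoints linearly. GI50 is the concentration that inhibits growth by half. TGI: concentration producing complete growth inhibition.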 *1 amine or outer side, *2 acyl side, *3 side chain or, on linkers, in order; H or OH if unused. Where a SMILES comes first, the peptide text is derived from it. Bridges are numbered along the chain shown (N, C = ends). [ ]: non-standard residue; d: D form. The star is where a group is joined. Phe(3,5-F2) = N[C@@H](Cc1cc(F)cc(F)c1)C(=O)O; Pro(4R-Me) = C[C@H]1CN[C@H](C(=O)O)C1; aThr = C[C@H](O)[C@H](N)C(=O)O; Pip = O=C(O)[C@@H]1CCCCN1; X10 = Fc1cc(C2CC2)ccc1N*; CO = O=C([*:1])[*:2]

Common to all, as to assay: NCI anticancer screen, dose series, 48 h
The test system of test [1] is DU-145 prostate.
Test [2] concerns COLO 205 colon.
In test [3] the test system is U251 CNS.
For test [4], the system named is SNB-19 CNS.
Test [5] has as its system HCT-15 colon.
Test [6] deals with NCI/ADR-RES ovarian.
In test [7] the test system is NCI-H226 lung.
In test [8] the test system is SR leukemia.
The subject of test [9] is NCI-H522 lung.
Test [10] deals with SNB-75 CNS.

Consider `O=[N+]([O-])c1ccc2c(c1)/C(=N/N=C1c3ccccc3Cc3ccccc31)c1cc([N+](=O)[O-])cc([N+](=O)[O-])c1-2`, for which the TGI in test [1] was determined as 13.7 µM; in test [2], 9.9 µM; in test [3], 10.7 µM; in test [4], 23.3 µM; in [5], 4.99 µM; in test [6], 4.91 µM. The TGI in [7] was 31.5 µM; in test [8], greater than 25.7 µM; in test [9], 3.25 µM; in test [10], 9.28 µM.

On to `O=C(Nc1ccc(F)cc1)Nc1ccc(Cl)c([N+](=O)[O-])c1`, for which the GI50 in test [1] was 4.44 µM; in test [2], 2480 nM; in [3], 3190 nM; in [4], 3540 nM; in test [5] it was 2920 nM; in test [6] it was 2600 nM. The GI50 in test [7] is 2280 nM; in test [8], 3410 nM; in test [9], 2440 nM; in [10] it was 5930 nM. Further, the TGI in [1] was found to be 21.2 µM; in test [2] it was 6.31 µM; in test [3], 12.5 µM; in [4], 14.3 µM; in test [5], 12.1 µM; in [6], 10.3 µM. The TGI in [7] is 9.3 µM; in test [8], greater than 100 µM; in test [9], 10.8 µM; in [10], greater than 100 µM.

With `C[C@@H]1C[C@H]2C(=O)O[C@@H](C)[C@H](NC(=O)[C@H](Cc3cc(F)cc(F)c3)NC(=O)Nc3ccc(C4CC4)cc3F)C(=O)N3CCC[C@H]3C(=O)N3CCCC[C@H]3C(=O)N[C@@H](C)C(=O)N2C1` ({X10-CO}-[Phe(3,5-F2)][aThr]P[Pip]A[Pro(4R-Me)]; ester 2-C), the GI50 in test [1] was 0.053 µM; in [2], 35.1 nM; in [3] it was 47.9 nM; in [4], 40.4 nM; in test [5] it was 79.6 nM; in test [6], 354 nM. The GI50 in test [7] is 52.4 nM; in [8], 63.3 nM; in test [9] it was 44.1 nM; in test [10], 48.5 nM. Besides, the TGI in [1] was greater than 56.9 µM; in test [2], 1.19 µM; in test [3], greater than 46 µM; in test [4] it was greater than 46.9 µM; in test [5] it was 5.28 µM; in [6] it was 45.6 µM. For the same compound, the values for the TGI in [7], in [8] and in [10] were 4.35 µM, 5.67 µM and 49.9 µM, respectively.

On to `Fc1[nH]nc2ccc([C@@H]3Nc4ccc5[nH]ncc5c4[C@H]4C5CCC(C5)[C@@H]34)cc12` (stereo not given in full), for which the GI50 is 3.22 µM in test [1]; 801 nM in [2]; 1020 nM in [3]; 1220 nM in [4]; 495 nM in [5]; 576 nM in test [6]. For the same compound, the GI50 was 3540 nM in test [7], 370 nM in [8], 432 nM in [9] and 503 nM in test [10]. In addition, the TGI came to 14.9 µM in [1]; 4.81 µM in test [2]; 13.5 µM in [3]; 18.1 µM in test [4]; 13.1 µM in test [5]; 8.99 µM in test [6]. The TGI stood at 25.9 µM in [7], 3.61 µM in test [8], 9.27 µM in test [9] and 3.93 µM in test [10].

Turning to `C[N+](C)(C)CC(=O)N/N=C(/CC(=O)CC(C1=C(O)c2ccccc2OC1)c1ccccc1)C(=O)Nc1cccc(Cl)c1` (stereo not given), the TGI in test [1], in test [2], in test [3], in [5], in test [6] and in test [7] was greater than 100 µM each time. Also, the TGI in test [8], in [9] and in test [10] was greater than 100 µM throughout.

On to `COC(=O)/C=C1\S/C(=N\NC(=O)c2cc3ccc2/C=C\c2ccc(cc2)/C=C\3)N(c2ccccc2)C1=O`, for which the GI50 in [1] was 5.11 µM; in [3], 1890 nM; in test [4], 1950 nM; in [5], 1870 nM; in test [6], 2920 nM; in test [7], 4380 nM. Besides, the results for the GI50 in test [8], in test [9] and in test [10] were 2460 nM, 4890 nM and 5440 nM, respectively. In addition, the TGI in test [1] stood at 35.3 µM; in test [3], 4 µM; in test [4], 4.25 µM; in [5], 4.05 µM; in test [6], 10.6 µM; in test [7] it was 25.5 µM. In addition, the TGI in [8], in test [9] and in test [10] was greater than 100 µM in each case.

For `COc1cc2c(c3oc4c(O)cccc4c(=O)c13)CC(C(C)(O)CO)O2` (stereo not given), the TGI in test [1], in test [2], in test [3], in test [4], in test [5] and in test [6] was greater than 100 µM in each case. For the same compound, the TGI in [7], in test [8] and in test [9] was greater than 100 µM in each case.
